According to EPA's ToxValDB 9.5:
“And” between values parts separate entries of the source, which are not always exact repeats. Equal values may be shown once.

What was measured:
[1] = tested on: Rattus norvegicus; details: acute, oral
[2] = tested on: Rattus norvegicus; details: oral
[3] = tested on: Mus musculus; details: short-term, duration: 28 days, oral, gavage, F, B6C3F1
[4] = tested on: Rattus norvegicus; details: subchronic, duration: 56 days, oral, diet, M, Sprague-Dawley
[5] = subchronic, gavage, M, Sprague-Dawley
[6] = Liver: Liver Weight, Relative + Thymus: CD8+ Cell Count
[7] = Spleen: Spleen Weight, Relative + Whole Body: Body Weight Change

Work on `CCC(C)(C)c1ccc(O)c(C(C)(C)CC)c1` [2,4-Di-tert-pentylphenol] yielded an LD50 ([1]; Sprague-Dawley) of 920 mg/kg and an NOAEL ([2]; subchronic, gavage, M, Sprague-Dawley, Deaths + Clinical Observation: Salivation/100 Soft feces/100 + Body Weight Changes: Body weight gain decrease + Urinalysis: Volume increase…) of 10 mg/kg-day.

`CCCCCCCCCCCCCCCCCC(=O)OCCOC(=O)CCCCCCCCCCCCCCCCC` [Octadecanoic acid, 1,2-ethanediyl ester] was tested, and the LD50 ([1]; gavage) was > 10000 mg/kg, the NOAEL [2, 5] was 1000 mg/kg-day and the NOEL [2, 5] was 1000 mg/kg-day.

With `CCC(C)c1cc(C(C)(C)C)c(O)c(C(C)(C)C)c1` (centres undefined) [4-(Butan-2-yl)-2,6-di-tert-butylphenol] the LC50 ([1]; Sprague-Dawley) was 4800 mg/kg, the NOEL ([2]; short-term, duration: 28 days, gavage, F, Sprague-Dawley, Clinical Observation: Soft feces + Urinalysis: pH decrease + Hematology: PT increase, APTT increase + Blood Chemistry: T-CHO increase, T-BIL…) was < 15 mg/kg-day and the NOEL ([2]; short-term, duration: 28 days, gavage, M, Sprague-Dawley, Clinical Observation: Soft feces + Urinalysis: pH decrease + Hematology: PT increase, APTT increase + Blood Chemistry: T-CHO increase, T-BIL…) was 15 mg/kg-day.

Work on `CCNS(=O)(=O)C(F)(F)C(F)(F)C(F)(F)C(F)(F)C(F)(F)C(F)(F)C(F)(F)C(F)(F)F` [N-Ethylperfluorooctanesulfonamide] yielded an LEL [3, 6] of 1 mg/kg-day, an NEL [3, 6] of 0.3 mg/kg-day and an NEL ([3]; Spleen: B Cell Proliferation + Spleen: B220+ Cell Count + Spleen: CD4-/CD8- Cell Count + Spleen: CD4+ Cell Count + Spleen: CD4+/CD8+ Cell …) of 10 mg/kg-day. It also gave an LEL ([3]; Spleen: Plaque Forming Cell (PFC) Response + Uterus: Uterus Weight, Relative) of 0.3 mg/kg-day, an LEL [3, 7] of 10 mg/kg-day and an NEL [3, 7] of 3 mg/kg-day. For the same compound, the LEL ([4]; Whole Body: Body Weight Change) was 6.82 mg/kg-day and 5.7 mg/kg-day and the NEL ([4]; Whole Body: Clinical Observations) was 6.82 mg/kg-day and 5.7 mg/kg-day.

With `O=S(=O)(O)c1cc(Cl)cc(N=Nc2ccc3c(O)cccc3c2O)c1[O-].[Na+]` the NOEL ([2]; short-term, duration: 28 days, gavage, M/F, Crl:CD(SD), Deaths + Clinical Observation: Loose stool Locomotor activity increase + Body Weight Changes: decrease + Water Consumption: increase + …) was < 40 mg/kg-day.

`[CH3][Sn]([CH3])([Cl])[Cl]` [Dimethyltin dichloride] was tested, and the NOAEL ([2]; subchronic, duration: 90 days, drinking water, M/F, Sprague-Dawley, Deaths + Clinical Observation: Died or sacrificed with poor condition (All remaining animals were sacrificed by week 6) Dehydration …) was < 3.8 mg/kg-day.

`OCc1ccccc1` [Benzyl alcohol] gave an NOEL ([2]; subchronic, duration: 13 weeks, gavage, M/F, Fischer 344, Deaths + Clinical Observation: Died Staggering Labored breathing Blood around nose and mouth + Body Weight Changes: decrease + …) of 200 mg/kg-day.

For `CO[Si](CCCNCCN)(OC)OC` [N-[3-(Trimethoxysilyl)propyl]ethane-1,2-diamine], the NOAEL ([2]; short-term, duration: 28 days, gavage, M, Sprague-Dawley, Clinical Observation: Perioral soiling Increased nasal sounds Labored respiration Soft vocalization) was 500 mg/kg-day.

With `CN(C)CCN(C)CCN(C)C` [1,1,4,7,7-Pentamethyldiethylenetriamine] the NOEL ([2]; subchronic, gavage, M, Sprague-Dawley, Body Weight Changes: decrease200 + Blood Chemistry: Alb decrease, IP increase + Relative Organ Weight: Liver increase + Histopathology: "…) was 40 mg/kg-day.

In the case of `O=c1[nH]c2ccccc2n1CCCN1CCN(C(c2ccccc2)c2ccccc2)CC1` [Oxatomide], the NOEL ([2]; subchronic, duration: 30 days, gavage, M/F, Wistar, Deaths + Clinical Observation: Tremor HypersensitivityPiloerection + Body Weight Changes: Body weight gain decrease + Food Consumption: …) is reported as 40 mg/kg-day.

Work on `CCCC[B-](c1ccccc1)(c1ccccc1)c1ccccc1.CCN(CC)c1ccc(C(=C/C=C/C(=C2C=CC(=[N+](CC)CC)C=C2)c2ccc(N(CC)CC)cc2)c2ccc(N(CC)CC)cc2)cc1` yielded an NOEL ([2]; short-term, duration: 28 days, gavage, M/F, Blood Chemistry: GPT increase, Ch E decrease + Organ Weight: Kidney decrease, Adrenal decrease + Necropsy: Adrenal- Reddish brown + …) of 30 mg/kg-day.

Compound `CN1CCN(c2c(F)cc3c(=O)c(C(=O)O)cn(CCF)c3c2F)CC1` [Fleroxacin] has an NOEL ([2]; chronic, duration: 91 days, gavage, M/F, Wistar, Deaths + Clinical Observation: Piloerection + Body Weight Changes: Body weight decrease, Body weight gain decrease + Food Consumption: …) of 45 mg/kg-day.

With `Nc1ccc(Oc2cccc(Oc3ccc(N)cc3)c2)cc1` [1,3-Phenylenedi(4-aminophenyl ether)] the NOEL ([2]; short-term, duration: 28 days, gavage, M/F, Deaths + Clinical Observation: Piloerection Abnormal distention Lethargy Loss of hair + Body Weight Changes: Weight gain decrease + Food …) was 10 mg/kg-day.

For `CCOCCc1ccc(OCC(OC)OC)c(C)c1C`, the NOEL ([2]; short-term, duration: 28 days, gavage, M/F, Clinical Observation: Salivation Locomotor activity decrease + Blood Chemistry: GOT increase, GPT increase, gamma-GTP increase, T-CHO …) was < 40 mg/kg-day.

`CCCCCCCCCCCCCCCCCCCCCCN(C)C` [1-Docosanamine, N,N-dimethyl-] was tested, and the NOEL ([2]; subchronic, gavage, M, Sprague-Dawley, Body Weight Changes: decrease + Blood Chemistry: AST increase, ALT increase, Alb increase, A/G increase, ALP decrease + Necropsy: Mesentric …) was 0.5 mg/kg-day.

`O=c1c(O)c(-c2ccc(O)cc2O)oc2cc(O)cc(O)c12` [Morin] was tested, and the NOEL ([2]; subchronic, diet, F, Fischer 344, Body Weight Changes: decrease + Hematology: WBC increase + Blood Chemistry: BUN increase , TP decrease, TG decrease , Alb increase , Cho …) was 356 mg/kg-day and the NOEL ([2]; subchronic, diet, M/F, Fischer 344, Body Weight Changes: decrease + Hematology: WBC increase + Blood Chemistry: BUN increase , TP decrease, TG decrease , Alb increase , Cho …) was 0.625%.
